Assay results published in PubChem BioAssay (NCI).
Where “and” joins values, the source holds several entries; their conditions need not be identical. Identical values can stand only once.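 All cell lines were grown in 96-well plates and treated with compound for 48 hours. GI50 marks 50% less growth. TGI: concentration producing complete growth inhibition.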

test system: UO-31 renal; assay: DTP human tumour cell line panel, 48 h

| Compound | GI50 | TGI |
| --- | --- | --- |
| Cn1cc(C2=C(c3ccc(N)cc3)C(=O)NC2=O)c2ccccc21 | 16.5 µM | > 25 µM |
| Cc1cc(Cl)cc(OCCn2cc(F)cn2)c1-c1nc(N)nc2c1CN(C(=O)NCC(C)(F)F)C2 | 0.682 µM | > 100 µM |
| COc1ccc(/C=C\[N+](=O)[O-])cc1OC | 1.85 µM | 3.87 µM |
| CCN(CC)CCC(CNc1ccnc2cc(Cl)ccc12)c1ccc(Cl)cc1 (stereo unspecified) | 0.642 µM | 2.07 µM |
| COc1cccc(F)c1C(=O)c1cnc(NC2CCN(S(C)(=O)=O)CC2)nc1N | 4.6 µM | 21.9 µM |
| c1ccc2cc(-c3cc4ccccc4s3)ccc2c1 | – | > 100 µM |
| CCOC(=O)C(C#N)C1=CC(=O)C(=O)c2ccc(OC)cc21 (stereo unspecified) | – | 32 µM |
| COc1cc(OCc2cccc(-c3ccc(C(O)c4nccs4)cc3)c2C)cc(OC)c1C=O (stereo unspecified) | 1.49 µM | 4.68 µM |
| COC(=O)c1ccc2c(c1)nc(NC(=O)c1ccccc1)n2CCCc1ccccc1 | 4.07 µM | > 100 µM |
| Cc1ccc(S(=O)(=O)Nc2ccccc2C=O)cc1 | – | 26.8 µM |
| O=C(O)COc1ccc2c(=O)c3sc4c(=O)c5ccccc5c(=O)c4c3c(=O)c2c1 | 11.8 µM | 30.1 µM |
| Cc1ccc(S(=O)(=O)N(C=O)N=C2CCN(Cc3ccccc3)CC2)cc1 | – | > 100 µM |
| CC1(C)S[C@@H]2[C@H](NC(=O)C3(N)CCCCC3)C(=O)N2[C@H]1C(=O)O | – | > 100 µM |
| NC(=O)/C=C/C(=O)c1c(Cl)cccc1Cl | 0.429 µM | 0.859 µM |

test system: HL-60(TB) leukemia; assay: DTP human tumour cell line panel, 48 h

| Compound | TGI | GI50 |
| --- | --- | --- |
| COC(=O)C(C(=O)c1ccccc1)C(C(=O)C(=O)Nc1ccc(OC)cc1OC)C(=O)C(=O)c1ccc(C)cc1 (stereo unspecified) | > 100 µM | – |
| O=C1CCC2(c3ccc(Cl)cc3)Nc3ncccc3N12 (stereo unspecified) | > 100 µM | – |
| COc1ccc(Sc2[nH]c(C(C)=O)c3ccccc23)cc1 | 33.4 µM | 15 µM |
| CC12C/C(=C\c3ccccc3)C(=O)C3C1CCCC32 | 55.6 µM | – |
| OC(CC1SCCCS1)c1ccccc1 (stereo unspecified) | > 100 µM | – |
| CCCCOC(=O)CNC(=O)OC/C=C/C#CC#C/C=C/COC(=O)NCC(=O)OCCCC | > 100 µM | > 100 µM |
| COc1ccc(OC)c2c1[nH]c(=O)c1c3ccccc3cn21 | 4.24 µM | 1.7 µM |
| COc1cccc2c1C(=O)c1c(O)c3c(c(O)c1C2=O)C[C@@](O)(C(=O)CO)C[C@@H]3OC1CC(N)CC(C)O1 (stereo partly specified) | 0.122 µM and 0.939 µM | 0.0091 µM and 0.00929 µM and 0.0412 µM |
| O=C1c2ccccc2C(=O)N1CCn1ccc(NC(c2ccccc2)(c2ccccc2)c2ccccc2)nc1=O | 44.2 µM | – |
| CC(C)(C)NNC(=O)CCn1[nH]c(=O)c(Cl)c(Cl)c1=O | > 100 µM | – |
| CN(C)CCNC(=O)c1cccc2ccc(-c3ccc(O)cc3)nc12 | 3.36 µM | – |
| COc1cc(Nc2ncccc2C(=O)NCc2cn(Cc3cccc(Oc4ccccc4)c3)nn2)cc(OC)c1 | > 100 µM | 3.97 µM |
| Nc1ccc([N+](=O)[O-])cc1N=C/C=C/c1ccccc1 | > 100 µM | 2.64 µM |
| COc1cc(-c2oc(=O)ccc2C#Cc2ccccn2)cc(OC)c1OC | 6.4 µM | 2.14 µM |
| COc1cccc(C2CC(C)(O)Oc3cc4c(cc32)OCO4)c1O (stereo unspecified) | > 59 µM | – |
| CCN(CC)CCCN1CCc2c([nH]c3ccccc23)C1c1cccnc1 (stereo unspecified) | > 100 µM | – |
| Cn1cc(C2=C(c3ccc(N)cc3)C(=O)NC2=O)c2ccccc21 | > 25 µM | 8.58 µM |
| Cc1cc(Cl)cc(OCCn2cc(F)cn2)c1-c1nc(N)nc2c1CN(C(=O)NCC(C)(F)F)C2 | > 100 µM | 0.0407 µM |
| COc1ccc(/C=C\[N+](=O)[O-])cc1OC | 7.79 µM | 2.94 µM |
| CCN(CC)CCC(CNc1ccnc2cc(Cl)ccc12)c1ccc(Cl)cc1 (stereo unspecified) | 3.94 µM | 1.34 µM |
| COc1cccc(F)c1C(=O)c1cnc(NC2CCN(S(C)(=O)=O)CC2)nc1N | 13.3 µM | 1.44 µM |
| c1ccc2cc(-c3cc4ccccc4s3)ccc2c1 | > 100 µM | – |
| CCOC(=O)C(C#N)C1=CC(=O)C(=O)c2ccc(OC)cc21 (stereo unspecified) | > 100 µM | – |
| COc1cc(OCc2cccc(-c3ccc(C(O)c4nccs4)cc3)c2C)cc(OC)c1C=O (stereo unspecified) | 4.85 µM | 1.87 µM |
| COC(=O)c1ccc2c(c1)nc(NC(=O)c1ccccc1)n2CCCc1ccccc1 | > 100 µM | 4.5 µM |
| Cc1ccc(S(=O)(=O)Nc2ccccc2C=O)cc1 | 27.6 µM | – |
| O=C(O)COc1ccc2c(=O)c3sc4c(=O)c5ccccc5c(=O)c4c3c(=O)c2c1 | 61.3 µM | 24.1 µM |
| Cc1ccc(S(=O)(=O)N(C=O)N=C2CCN(Cc3ccccc3)CC2)cc1 | > 100 µM | – |
| CC1(C)S[C@@H]2[C@H](NC(=O)C3(N)CCCCC3)C(=O)N2[C@H]1C(=O)O | > 100 µM | – |
| NC(=O)/C=C/C(=O)c1c(Cl)cccc1Cl | 4.05 µM | 0.679 µM |

test system: MALME-3M melanoma; assay: DTP human tumour cell line panel, 48 h

| Compound | TGI | GI50 |
| --- | --- | --- |
| COC(=O)C(C(=O)c1ccccc1)C(C(=O)C(=O)Nc1ccc(OC)cc1OC)C(=O)C(=O)c1ccc(C)cc1 (stereo unspecified) | > 100 µM | – |
| O=C1CCC2(c3ccc(Cl)cc3)Nc3ncccc3N12 (stereo unspecified) | > 100 µM | – |
| COc1ccc(Sc2[nH]c(C(C)=O)c3ccccc23)cc1 | 51.3 µM | 17.8 µM |
| CC12C/C(=C\c3ccccc3)C(=O)C3C1CCCC32 | > 100 µM | – |
| OC(CC1SCCCS1)c1ccccc1 (stereo unspecified) | > 100 µM | – |
| CCCCOC(=O)CNC(=O)OC/C=C/C#CC#C/C=C/COC(=O)NCC(=O)OCCCC | > 100 µM | > 100 µM |
| COc1ccc(OC)c2c1[nH]c(=O)c1c3ccccc3cn21 | 3.32 µM | 1.78 µM |
| COc1cccc2c1C(=O)c1c(O)c3c(c(O)c1C2=O)C[C@@](O)(C(=O)CO)C[C@@H]3OC1CC(N)CC(C)O1 (stereo partly specified) | 0.256 µM and 0.11 µM | 0.0491 µM |
| O=C1c2ccccc2C(=O)N1CCn1ccc(NC(c2ccccc2)(c2ccccc2)c2ccccc2)nc1=O | 43.2 µM | – |
| CC(C)(C)NNC(=O)CCn1[nH]c(=O)c(Cl)c(Cl)c1=O | > 100 µM | – |
| CN(C)CCNC(=O)c1cccc2ccc(-c3ccc(O)cc3)nc12 | 6.08 µM and 2.9 µM | 0.863 µM |
| COc1cc(Nc2ncccc2C(=O)NCc2cn(Cc3cccc(Oc4ccccc4)c3)nn2)cc(OC)c1 | > 100 µM | 5.81 µM |
| Nc1ccc([N+](=O)[O-])cc1N=C/C=C/c1ccccc1 | > 100 µM | 25.1 µM |
| COc1cc(-c2oc(=O)ccc2C#Cc2ccccn2)cc(OC)c1OC | > 100 µM | 14.9 µM |
| COc1cccc(C2CC(C)(O)Oc3cc4c(cc32)OCO4)c1O (stereo unspecified) | > 100 µM | – |
| CCN(CC)CCCN1CCc2c([nH]c3ccccc23)C1c1cccnc1 (stereo unspecified) | > 100 µM | – |
| Cn1cc(C2=C(c3ccc(N)cc3)C(=O)NC2=O)c2ccccc21 | > 25 µM | > 25 µM |
| Cc1cc(Cl)cc(OCCn2cc(F)cn2)c1-c1nc(N)nc2c1CN(C(=O)NCC(C)(F)F)C2 | > 100 µM | 0.0684 µM |
| COc1ccc(/C=C\[N+](=O)[O-])cc1OC | 43.5 µM | 22.6 µM |
| CCN(CC)CCC(CNc1ccnc2cc(Cl)ccc12)c1ccc(Cl)cc1 (stereo unspecified) | 3.16 µM | 1.4 µM |
| COc1cccc(F)c1C(=O)c1cnc(NC2CCN(S(C)(=O)=O)CC2)nc1N | 13.7 µM | 4.35 µM |
| c1ccc2cc(-c3cc4ccccc4s3)ccc2c1 | > 100 µM | – |
| CCOC(=O)C(C#N)C1=CC(=O)C(=O)c2ccc(OC)cc21 (stereo unspecified) | 31 µM | – |
| COc1cc(OCc2cccc(-c3ccc(C(O)c4nccs4)cc3)c2C)cc(OC)c1C=O (stereo unspecified) | 7.9 µM | 2.7 µM |
| COC(=O)c1ccc2c(c1)nc(NC(=O)c1ccccc1)n2CCCc1ccccc1 | > 100 µM | 5.73 µM |
| Cc1ccc(S(=O)(=O)Nc2ccccc2C=O)cc1 | 46.1 µM | – |
| O=C(O)COc1ccc2c(=O)c3sc4c(=O)c5ccccc5c(=O)c4c3c(=O)c2c1 | 4.59 µM | 2.12 µM |
| Cc1ccc(S(=O)(=O)N(C=O)N=C2CCN(Cc3ccccc3)CC2)cc1 | > 100 µM | – |
| CC1(C)S[C@@H]2[C@H](NC(=O)C3(N)CCCCC3)C(=O)N2[C@H]1C(=O)O | > 100 µM | – |
| NC(=O)/C=C/C(=O)c1c(Cl)cccc1Cl | 1.71 µM | 0.358 µM |
